Experimental findings from patent publication US11534437B2, “Methods of treating radiation induced gastrointestinal syndrome (RIGS) and related disease states using compound 512” (BCN Biosciences L.L.C., priority 2017, dated 2022) are described below.

For one assay, the system named is plasma cytokines. In words: Plasma cytokine levels in rodents after lower thoracic radiation. Type of assay: in vivo. The settings on record: LTI + 512, 5 mg/kg 512. From the text:
Ctl, control with no treatment. LTI, lower thoracic radiation, LTI+512, radiation, and 512. The cytokine phenotype is anti-inflammatory where IL-6 is an anti-inflammatory cytokine required for controlling local or systemic acute inflammatory responses and IL-1 is pro inflammatory and so forth.

Assay [1] deals with HEK293 cells having TCF/LEF luciferase reporter construct. Description: TCF/LEF luciferase reporter assay for canonical WNT activity. It is filed as cell-based. Conditions: LiCl 10 mM, 24 hr. Here is the method:
To determine the canonical WNT activity in 512 (28.78 μM) HEK293 cells having TCF/LEF luciferase reporter construct were treated with 512 or vehicle control. LiCl (10 mM) treatment was used as positive control for luciferase activity. Luciferase activity was determined 24 hr after using Dual-Luciferase® Reporter Assay System (Promega) as per manufacturer's protocol. HEK293 cells having FOPFLASH construct were used as negative control. […] WNT-β catenin signaling is well known to promote the self renewal and differentiation of LGR5+ epithelial (lung, oral, intestinal) stem cells.

Consider `O=[N+]([O-])c1ccc(S(=O)(=O)N2CCN(c3ccccc3)CC2)cc1` [Compound 512, 1-[(4-nitrobenezene)sulfonyl]-4-phenyl piperazine], for which, in the assay on plasma cytokines (Ctl 7, LTI 15), the “plasma IL-6 level” value was 88. In addition, in the assay on plasma cytokines (Ctl 10, LTI 210), the “plasma KC level” value is recorded as 245. In addition, the “plasma IL-23 level” value in the assay with plasma cytokines (Ctl 13, LTI 79) was determined as 23. Besides, the “plasma MCP-1 level” value in the assay with plasma cytokines (Ctl 17, LTI 103) is given as 77. Besides, in the assay with plasma cytokines (Ctl 25, LTI 88), the “plasma MIP-1b level” value is given as 13. In the assay on plasma cytokines (Ctl 32, LTI 50), the “plasma IL-1b level” value is given as 7.

Consider `[Cl-].[Li+]` [LiCl], for which the “luciferase activity (positive control)” value in assay [1] is reported as “significant increase in Luciferase activity”.
